The values below come from patent publication US20040229848A1, “Glutaminyl based DP IV-inhibitors” (priority 2003, published 2004).

The target in one data set is human QC (Homo sapiens, UniProt Q16769). The data set is described as follows: Inhibition of the human QC (glutaminyl cyclase) catalyzed reaction, Ki determination.
Another data set addresses DPIV (Homo sapiens, UniProt P27487). Put plainly: DPIV activity assay, hydrolysis of H-Gly-Pro-pNA. Conditions: 0.4 mM H-Gly-Pro-pNA, 0.65 mU DPIV, 0.04 M Hepes pH 7.6, 30° C.; 2.6*10^−5 M glutaminyl thiazolidine.
For another data set, the target named is glutaminyl cyclase (QC) (Homo sapiens, UniProt Q16769).
glutaminyl cyclase (QC), sequence (Q16769 29-361): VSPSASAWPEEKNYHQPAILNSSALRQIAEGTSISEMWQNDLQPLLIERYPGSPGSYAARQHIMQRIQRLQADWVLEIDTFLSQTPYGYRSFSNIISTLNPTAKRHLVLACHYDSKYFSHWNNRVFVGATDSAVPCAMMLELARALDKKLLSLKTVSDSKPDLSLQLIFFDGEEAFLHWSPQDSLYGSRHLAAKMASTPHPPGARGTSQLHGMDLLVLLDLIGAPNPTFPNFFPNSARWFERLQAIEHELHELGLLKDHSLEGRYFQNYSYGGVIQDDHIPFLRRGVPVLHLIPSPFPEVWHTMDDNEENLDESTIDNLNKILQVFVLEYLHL
[1] abbreviates: read-out: Ki-value, human QC catalyzed reaction, 30° C. in 0.05 M Tris-HCl pH 8.0, containing 5 mM EDTA.
[2] abbreviates: read-out: Ki value, QC inhibition by L-histamine and its two biological metabolites (Table 4).
[3] abbreviates: human QC catalyzed reaction, 30° C. in 0.05 M Tris-HCl pH 8.0, containing 5 mM EDTA.

Molecules are shown by their SMILES. Where two headings read alike, the source gives them in different places.

human QC, sequence (Q16769 29-361): as above
DPIV, sequence (P27487 whole entry): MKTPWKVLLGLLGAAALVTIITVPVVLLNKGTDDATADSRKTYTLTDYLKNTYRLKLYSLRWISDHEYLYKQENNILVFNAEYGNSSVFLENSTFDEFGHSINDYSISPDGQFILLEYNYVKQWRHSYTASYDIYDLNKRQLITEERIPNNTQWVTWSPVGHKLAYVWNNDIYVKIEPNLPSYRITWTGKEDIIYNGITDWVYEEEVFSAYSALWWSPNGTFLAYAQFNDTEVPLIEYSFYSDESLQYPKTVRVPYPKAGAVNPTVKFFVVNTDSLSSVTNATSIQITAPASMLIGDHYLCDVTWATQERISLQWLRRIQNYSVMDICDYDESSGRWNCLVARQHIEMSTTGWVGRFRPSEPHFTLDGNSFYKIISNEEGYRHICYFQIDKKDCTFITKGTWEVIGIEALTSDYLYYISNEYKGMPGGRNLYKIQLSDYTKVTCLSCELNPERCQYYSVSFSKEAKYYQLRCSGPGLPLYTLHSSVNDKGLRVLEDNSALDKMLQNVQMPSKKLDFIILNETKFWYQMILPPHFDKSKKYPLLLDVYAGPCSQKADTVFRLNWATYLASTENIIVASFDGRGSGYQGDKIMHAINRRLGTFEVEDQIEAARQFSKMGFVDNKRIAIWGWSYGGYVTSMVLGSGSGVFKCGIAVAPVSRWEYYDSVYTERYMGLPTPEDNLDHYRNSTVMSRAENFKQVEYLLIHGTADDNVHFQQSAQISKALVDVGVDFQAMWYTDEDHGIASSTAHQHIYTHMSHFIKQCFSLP
Description for DPIV: (§1) All assays were performed at 30° C. using the Sunrise reader for microplates (TECAN). […] Additionally, samples contained either
(§2) a) 2.6*10^−5 M glutaminyl thiazolidine (open circles), or
(§3) Otherways, reactions were started by addition of a mixture of H-Gly-Pro-pNA and glutaminyl thiazolidine. Reactions were followed by monitoring the decrease in absorbance at 400 nm.
Description for glutaminyl cyclase (QC): as §1, §2, §3
Description for human QC: Excitation/emission wavelengths were 320/410 nm. The assay reactions were initiated by addition of glutaminyl cyclase.
Reactions were carried out at 30° C. utilizing the NOVOStar reader for microplates (BMG labtechnologies). […] Excitation/emission wavelengths were 380/460 nm. The assay reactions were initiated by addition of glutaminyl cyclase. […] The kinetic data were evaluated using GraFit software.
The initial velocities were evaluated and the enzymatic activity was determined from a standard curve of ammonia under assay conditions. All samples were measured at 30° C., using either the [sequence]luor Plus or the Sunrise (both from TECAN) reader for microplates. Kinetic data was evaluated using GraFit software.
For inhibitor testing, the sample composition was the same as described above, except of the putative inhibitory compound added. […] For detailed investigations of the inhibition and determination of Ki-values, influence of the inhibitor on the auxiliary enzymes was investigated first.

In general, Ki refers to the equilibrium dissociation constant of an inhibitor or competing ligand from its target. For the compound `O=C1CNC(=S)N1CCCn1ccnc1` [3-[3-(1H-imidazol-1-yl)propyl]-2-thioxoimidazolidin-4-one], on human QC, the Ki was found to be 0.41 ± 0.01 µM.
Take `NC(=O)c1[nH]cnc1N` [4-amino-imidazole-5-carbonic acid amide]: the Ki at human QC (setting [1]) is 15500 ± 500 µM.
`NC(=O)CC[C@H](N)C(=O)N1CCSC1` [glutaminyl thiazolidine]: the “inhibition of DPIV (hydrolysis of H-Gly-Pro-pNA)” value at DPIV is recorded as “competitive inhibition”. Moreover, at glutaminyl cyclase (QC), the “degradation by glutaminyl cyclase” value is listed as “degraded to the pyro-glutaminyl-thiazolidine” and the “half-life in the presence of QC” value was “reduced”.
On to `Cn1ccnc1` [1-methylimidazole], for which the Ki on human QC was found to be 30 ± 1 µM.
On to `NCCc1c[nH]cn1` [L-histamine], for which the Ki at human QC (setting [2]) and on human QC (setting [1]) was 850 ± 40 µM in each case.
With `N#Cc1nc[nH]c1C#N` [4,5-dicyanoimidazole], the “Ki-value (mM)” value at human QC (setting [3]) is “no inhibition”.
Consider `Cn1cnc(CCN)c1` [1-methyl-4-(β-aminoethyl)-imidazole], for which, at human QC (QC inhibition by L-histamine and its two biological metabolites (Table 4)), the “Ki value (mM)” value is “n.i”.
At human QC, `COC(=O)[C@@H](NC(=O)[C@@H](N)CCC(=O)Nn1ccnc1)C(C)C` [Methyl (2S)-2-{[(28)-2-amino-5-(1H-imidazol-1-ylamino)-5-oxopentanoyl]amino}-3-methylbutanoate] showed a Ki of 164 ± 4 µM.
Regarding `NCCCn1ccnc1` [1-(3-aminopropyl)-imidazole], at human QC (setting [1]), the Ki was found to be 410 ± 10 µM.
As for `c1ccn2cncc2c1` [Imidazo[1.5a]pyridine], the Ki at human QC worked out at 35.6 ± 0.5 µM.
As to `Cc1nc[nH]c1CO` [5-hydroxymethyl-4-methyl-imidazole], the Ki on human QC (setting [1]) is 129 ± 5 µM.
Still for that read-out and setting: then `O=C(c1ccccc1)n1ccnc1` [N-benzoylimidazole], with 174 ± 7 µM.
Take `Cc1c(C(=O)CCn2ccnc2)sc2ccccc12` [3-(1H-imidazol-1-yl)-1-(3-methylbenzo[b]thiophene-2-yl)propan-1-one]: at human QC, the Ki came out at 2.5 ± 0.1 µM.
As for `Cn1cncc1CCN` [3-methyl-4-(β-aminoethyl)-imidazole], on human QC (setting [2]), the Ki was 120 ± 4 µM.
`c1ccc(-c2nc[nH]c2-c2ccccc2)cc1` [4,5-diphenyl-imidazole]: at human QC (setting [3]), the “Ki-value (mM)” value is given as “no inhibition”.
At human QC, `O=C(C(=O)n1ccnc1)n1ccnc1` [oxalic acid dilmidazolidide] displayed a Ki of 78 ± 2 µM.
On human QC, `CCCC1C(=O)OCC1Cc1cncn1C` (centres unmarked) [4-[(1-methyl-1H-imidazol-5-yl)methyl]-3-propyldihydrofuran-2-(3H)-one] displayed a Ki of 6.7 ± 0.3 µM.
Consider `COC(=O)[C@H](C)NC(=O)C1CCC(Cn2ccnc2)N1` (some centres unmarked) [2-[(5-imidazol-1-ylmethyl-pyrrolidine-2-carbonyl)-amino]-propionic acid methyl ester], for which the Ki on human QC came out at 32.2 ± 0.7 µM.
Consider `O=C(O)c1ccc(OCCn2ccnc2)cc1` [4-[2-(1H-imidazol-1-yl)-ethoxy]benzoic acid], for which, at human QC, the affinity, expressed as Ki, was 3.4 ± 0.1 µM.
On to `COC(=O)c1c[nH]cn1` [imidazole-4-carbonic acid methylester], for which the Ki at human QC (setting [1]) is 14500 ± 600 µM.
On the same count and under the same terms, then `Nc1nc2ccccc2[nH]1` [2-aminobenzimidazole], with 1800 ± 100 µM; and `C[Si](C)(C)n1ccnc1` [N-(trimethylsilyl)-imidazole], with 167 ± 7 µM.
Regarding `O=Cc1c[nH]cn1` [4-imidazole-carboxaldehyde], on human QC (setting [1]), the Ki worked out at 7600 ± 700 µM.
In the case of `Clc1nc2ccccc2[nH]1` [2-chioro-1H-benzimidazole], the “Ki-value (mM)” value on human QC (setting [3]) was “no inhibition”.
For `O=C1CCC(C(=O)N2CCSC2)N1` (centres unmarked) [pyro-glutaminyl-thiazolidine], the “inhibition of DPIV (hydrolysis of H-Gly-Pro-pNA)” value against DPIV was “not active”.
In the case of `CCc1nc(C)c[nH]1` [2-ethyl-4-methyl-imidazole], at human QC (setting [1]), the Ki was 580 ± 40 µM.
`C=Cn1ccnc1` [1-vinylimidazole]: the Ki on human QC (setting [1]) stood at 49 ± 2 µM.
In the case of `N[C@@H](Cc1c[nH]cn1)C(=O)O` [L-histidine], the Ki at human QC (setting [1]) worked out at 4400 ± 200 µM.
As to `N[C@H](CO)Cc1c[nH]cn1` [L-histidinol], on human QC (setting [1]), the Ki stood at 1530 ± 120 µM.
Take `CC(=O)n1ccnc1` [N-acetylimidazole]: the Ki at human QC (setting [1]) stood at 107 ± 3 µM.
Compound `O=C(Nc1ccccc1C(=O)NCCCn1ccnc1)c1ccc([N+](=O)[O-])o1` [5-nitro-2-[2-([{3-(1H-imidazol-1-yl-)propyl}amino]carbonyl)phenyl]furamide] yielded a Ki on human QC of 6.6 ± 0.4 µM.
Turning to `O=S(=O)(n1ccnc1)n1ccnc1` [1,1′-sulfonyldiimidazole], the “Ki-value (mM)” value on human QC (setting [3]) is listed as “no inhibition”.
For `Cc1nc2ccccc2[nH]1` [2-methyl-benzylimidazole], the Ki at human QC (setting [1]) is 165 ± 4 µM.
Regarding `S=C(NCCn1ccnc1)Nc1ccc(Cl)cc1` [N-(4-chlorophenyl)-N′-[2-(1H-imidazol-1-yl)ethyl]thiourea], the affinity on human QC, expressed as Ki, was 1.65 ± 0.07 µM.
`c1ccc2[nH]cnc2c1` [benzimidazole]: the “reaction rate of H-Gly-Pro-pNA hydrolysis after addition of the QC inhibitor” value on glutaminyl cyclase (QC) (case (c): 2.6*10^−5 M glutaminyl thiazolidine, 54 mU QC and 0.4 mM inhibitor) is given as “the reaction rate goes down as low as in case (a)”.
Take `c1ccc(-n2ccnc2)cc1` [1-phenylimidazole]: at human QC (setting [3]), the “Ki-value (mM)” value is reported as “no inhibition”.
As for `NC(=O)[C@@H](N)Cc1c[nH]cn1` [L-histidinamide], the Ki at human QC (setting [1]) amounted to 560 ± 40 µM.
Take `O=C(Cn1ccnc1)c1ccccc1` [1-(2-oxo-2-phenyl-ethyl)-imidazole]: the Ki at human QC (setting [1]) came out at 184 ± 5 µM.
